19 molecules from patent US5741811A, “Polythiophene anti-tumor agents” (Purdue Research Foundation, priority 1996, dated 1998) can be followed below.

In brackets after ≈: the same amount, converted by molar mass.

In assay [1] the test system is NHBE cells (Normal human bronchial epithelial cells). The assay can be described thus: Selective cytotoxicity, normal cells (cell count). Type of assay: cell-based.
Assay [2] deals with TBE cells (ras-transformed human bronchial epithelial cells). Put plainly: Selective cytotoxicity, ras-transformed cells (cell count). Type of assay: cell-based.
For assay [3], the system named is ras-transformed human bronchial epithelial cells (TBE) tumor. The assay can be described thus: In vivo antitumor activity, TBE cells implanted in athymic mice. The arrangement: species or system athymic mice (human tumor cells). To be noted: 25 mg/kg i.p., 4.0 × 10^6 cells/mouse; for Number of Animals with Tumor: five mice. The protocol: The experiments were carried out at Purdue University athymic mouse laboratory. Athymic mice were purchased from and maintained at the athymic mouse laboratory under […]. Tumor cells (TBE) were obtained from normal human bronchial epithelial cells transfected with plasmic H1 carrying v-Harvey-ras (H-ras) oncogene via protoplast fusion (G. H. Yoakum, J. F. Lechner, E. W. Gabrielson, B. E. Korba, L. Malan-Shibley, J. C. Willey, M. G. Valerio, A. M. Shamsuddin, B. F. Trump and C. C. Harris, Science 227, 1174, 1985. T. C. K. Chan, C.-j. Chang, N. M. Koonchanok and R.L. Geahlen, Biochem. Biophys. Res. Commun., 193, 1152, 1993. The TBE cells were implanted subcutaneously on day 0 of the experiment. Each test group consists of five mice. The compounds tested were dissolved in a saline solution or a saline solution containing 5% of dimethylsulfoxide and 10% cremphor EL (Sigma Chemical Company, St. Louis, Mo.), and were administered intraperitoneously starting on day 2. The solution was administered every four days for a total of four treatments. Tumor volumes were measured every week. The antitumor activity was measured as % of growth inhibition, which is defined by the percentage of the median tumor volume reduction per week of the treated mice divided by the median tumor volume per week of the controlled mice (Tables 9 and 10).

Assay [4] deals with UACC-62 melanoma cells. Put plainly: NCI human tumor cell line panel growth inhibition. Type of assay: cell-based.
The subject of assay [5] is SNB-19 CNS cancer cells. Put plainly: NCI human tumor cell line panel growth inhibition. Type of assay: cell-based. To be noted: Homo sapiens, read-out: Log10 GI50 (converted).
Assay [6] relates to NCI-H23 lung cancer cells. Put plainly: NCI human tumor cell line panel growth inhibition. Type of assay: cell-based. To be noted: read-out: Log10 GI50 (converted).
The subject of assay [7] is OVCAR-5 ovarian cancer cells. Put plainly: NCI human tumor cell line panel growth inhibition. Type of assay: cell-based.
The test system of assay [8] is RXF-631 renal cancer cells. Put plainly: NCI human tumor cell line panel growth inhibition. Type of assay: cell-based.
The test system of assay [9] is KM20L2 colon cancer cells. The assay can be described thus: NCI human tumor cell line panel growth inhibition. Type of assay: cell-based.
In assay [10] the test system is SF-295 CNS cancer cells. Put plainly: NCI human tumor cell line panel growth inhibition. Type of assay: cell-based. To be noted: read-out: Log10 GI50 (converted).
Assay [11] relates to COLO-205 colon cancer cells. Put plainly: NCI human tumor cell line panel growth inhibition. Type of assay: cell-based. To be noted: Homo sapiens; COLO-205, colon cancer; read-out: Log10 GI50 (converted).
Assay [12] concerns CAKI-1 renal cancer cells. Put plainly: NCI human tumor cell line panel growth inhibition. Type of assay: cell-based. To be noted: CAKI-1, renal cancer.
In assay [13] the test system is NCI-H226 lung cancer cells. Put plainly: NCI human tumor cell line panel growth inhibition. Type of assay: cell-based.
Assay [14] deals with UACC-257 melanoma cells. Put plainly: NCI human tumor cell line panel growth inhibition. Type of assay: cell-based.
The subject of assay [15] is DLD-1 colon cancer cells. The assay can be described thus: NCI human tumor cell line panel growth inhibition. Type of assay: cell-based. To be noted: Homo sapiens, read-out: Log10 GI50 (converted).
The subject of assay [16] is A-498 renal cancer cells. The assay can be described thus: NCI human tumor cell line panel growth inhibition. Type of assay: cell-based.
The test system of assay [17] is TK-10 renal cancer cells. The assay can be described thus: NCI human tumor cell line panel growth inhibition. Type of assay: cell-based.
Assay [18] deals with NCI-H460 lung cancer cells. Put plainly: NCI human tumor cell line panel growth inhibition. Type of assay: cell-based.
The test system of assay [19] is HCT-116 colon cancer cells. Put plainly: NCI human tumor cell line panel growth inhibition. Type of assay: cell-based.
In assay [20] the test system is U251 CNS cancer cells. The assay can be described thus: NCI human tumor cell line panel growth inhibition. Type of assay: cell-based.
Assay [21] concerns HOP-18 lung cancer cells. Put plainly: NCI human tumor cell line panel growth inhibition. Type of assay: cell-based. Particulars: Homo sapiens, read-out: Log10 GI50 (converted).
In assay [22] the test system is NCI-H322M lung cancer cells. The assay can be described thus: NCI human tumor cell line panel growth inhibition. Type of assay: cell-based. Particulars: Homo sapiens, read-out: Log10 GI50 (converted).
For assay [23], the system named is LXPL-529 lung cancer cells. Put plainly: NCI human tumor cell line panel growth inhibition. Type of assay: cell-based.
Assay [24] relates to IGROV-1 ovarian cancer cells. Put plainly: NCI human tumor cell line panel growth inhibition. Type of assay: cell-based.
Assay [25] deals with RXF-393 renal cancer cells. Put plainly: NCI human tumor cell line panel growth inhibition. Type of assay: cell-based. Particulars: Homo sapiens, read-out: Log10 GI50 (converted).
Assay [26] has as its system HCC-2998 colon cancer cells. The assay can be described thus: NCI human tumor cell line panel growth inhibition. Type of assay: cell-based. Particulars: Homo sapiens, read-out: Log10 GI50 (converted).
Assay [27] relates to SNB-75 CNS cancer cells. The assay can be described thus: NCI human tumor cell line panel growth inhibition. Type of assay: cell-based.
Setting [28] is: Homo sapiens, read-out: Log10 GI50 (converted).

In general, GI50 refers to the concentration at which growth is held to half of that of the control. With `OCc1ccc(-c2ccc(-c3cccs3)s2)s1` [compound 637388], the GI50 turned out to be 3 µg/mL (≈ 10.8 µM) in [1] and 0.02 µg/mL (≈ 0.0718 µM) in [2].
In the same order, the values of `O=Cc1ccc(-c2ccc(-c3cccs3)s2)s1` [compound 637393] are 0.2 µg/mL (≈ 0.724 µM) and 0.03 µg/mL (≈ 0.109 µM).
Take `O=Cc1ccc(-c2ccc(-c3ccc(C=O)s3)s2)s1` [compound 637394]: the concentration for 50% growth inhibition (GI50) was determined as 0.2 µg/mL (≈ 0.657 µM) in [1] and 0.01 µg/mL (≈ 0.0328 µM) in assay [2].
As to `O=Cc1ccc(-c2ccc(CO)s2)s1` [compound 647073], the 50% growth inhibitory concentration (GI50) is 0.08 µg/mL (≈ 0.357 µM) in assay [1] and 0.05 µg/mL (≈ 0.223 µM) in [2].
In the same order, the values of `OCc1ccc(-c2ccc(CO)s2)s1` [compound 647452] are 0.6 µg/mL (≈ 2.65 µM) and 0.03 µg/mL (≈ 0.133 µM).
`O=Cc1ccc(-c2ccc(-c3ccc(CO)s3)s2)s1` [compound 647455]: the “Tumor Volume” value in assay [3] (week 1) is reported as 0.0 mm^3; in assay [3] (week 1.5) it was 1.4 mm^3; in assay [3] (week 2), 5.2 mm^3; in assay [3] (week 3), 5.8 mm^3; in assay [3] (week 4), 5.6 mm^3; in [3] (week 5) it was 5.4 mm^3. For the same molecule, the results for the “Tumor Volume” value in assay [3] (week 6) and in assay [3] (week 8.6) were 10.6 mm^3 and 18.8 mm^3, respectively. Besides, the “Number of Animals with Tumor” value in assay [3] (week 1) amounted to 0; in [3] (week 1.5) it was 1; in [3] (week 2), 3; in [3] (week 3) it was 4; in [3] (week 4) it was 4; in assay [3] (week 5) it was 4. For the same molecule, the “Number of Animals with Tumor” value in [3] (week 6) and in [3] (week 8.6) was 5 throughout. The Slope in assay [3] (week 3) is given as 2.16 mm^3 /week; in assay [3] (week 4), 1.75 mm^3 /week; in assay [3] (week 5), 1.34 mm^3 /week; in [3] (week 6), 1.60 mm^3 /week; in assay [3] (week 8.6), 2.07 mm^3 /week. The “Tumor Growth Inhibition” value stood at 57% in [3] (week 3); 60% in assay [3] (week 4); 61% in assay [3] (week 5); 45% in [3] (week 6); 21% in assay [3] (week 8.6). Moreover, the GI50 was 0.1 µg/mL (≈ 0.326 µM) in assay [1] and 0.002 µg/mL (≈ 0.00653 µM) in assay [2].
For `NCc1ccc(-c2ccc(-c3cccs3)s2)s1` [compound 652866], the GI50 in [1] worked out at 0.01 µg/mL (≈ 0.036 µM); in assay [2] it was 0.001 µg/mL (≈ 0.0036 µM).
For the molecule `NCc1ccc(-c2ccc(-c3ccc(CO)s3)s2)s1` [compound 656898], the GI50 in assay [1] came to 3 µg/mL (≈ 9.76 µM); in assay [2] it was 0.02 µg/mL (≈ 0.065 µM).
As for `NCc1ccc(-c2ccc(-c3ccc(CN)s3)s2)s1` [compound 658110], the GI50 is 10 µg/mL (≈ 32.6 µM) in [1] and 4 µg/mL (≈ 13.1 µM) in assay [2].
In the same order, the values of `OCc1ccc(-c2ccc(-c3sccc3CO)s2)s1` [compound 658875] are 9.7 µg/mL (≈ 31.4 µM) and 0.002 µg/mL (≈ 0.00648 µM).
In the case of `O=Cc1ccc(-c2ccc(-c3sccc3CO)s2)s1` [compound 658876], the GI50 in assay [1] worked out at 0.4 µg/mL (≈ 1.31 µM); in assay [2], 0.02 µg/mL (≈ 0.0653 µM).
In the same order, the values of `O=Cc1ccc(-c2ccc(-c3sccc3C=O)s2)s1` [compound 658877] are 0.6 µg/mL (≈ 1.97 µM) and 0.03 µg/mL (≈ 0.0985 µM).
In the same order, the values of `OCc1csc(-c2ccc(-c3ccc(CO)s3)s2)c1` [compound 658878] are 8 µg/mL (≈ 25.9 µM) and 0.002 µg/mL (≈ 0.00648 µM).
In the same order, the values of `O=Cc1ccc(-c2ccc(-c3cc(CO)cs3)s2)s1` [compound 658879] are 6.2 µg/mL (≈ 20.2 µM) and 0.004 µg/mL (≈ 0.0131 µM).
As for `CC[N+](CC)(CC)Cc1ccc(-c2ccc(-c3cccs3)s2)s1` [compound 659561], the figures for the GI50 in assay [1] and in [2] were 5 µg/mL and 2 µg/mL, respectively.
In the same order, the values of `O=Cc1ccc(-c2ccc(-c3ccsc3)s2)s1` [compound 660643] are 2.4 µg/mL (≈ 8.68 µM) and 0.005 µg/mL (≈ 0.0181 µM).
Turning to `OCc1ccc(-c2ccc(-c3ccsc3)s2)s1` [compound 660644], the figures for the GI50 in [1] and in assay [2] were 3.6 µg/mL (≈ 12.9 µM) and 0.002 µg/mL (≈ 0.00718 µM), respectively.
Consider `OCc1ccc(-c2ccc(-c3cccs3)s2)s1` [drawing 30], for which the GI50 in assay [4] (setting [28]) is below 10 nM; in assay [5], 18.6 µM; in assay [6], 70.8 µM; in [7] (setting [28]) it was 224 nM; in assay [8] (setting [28]), 28.2 nM; in [9] (Homo sapiens, KM-20L2, read-out: Log10 GI50 (converted)) it was 245 nM. The GI50 in assay [10] was 33.9 µM; in assay [11], 912 nM; in [12] (setting [28]) it was 27.5 nM; in [13] (setting [28]) it was 117 nM; in [14] (setting [28]) it was 102 nM; in [15], 4.47 µM. The GI50 is below 10 nM in assay [16] (Homo sapiens, A498, read-out: Log10 GI50 (converted)); 105 nM in assay [17] (setting [28]); 490 nM in assay [18] (setting [28]); 295 nM in assay [19] (setting [28]); 148 nM in assay [20] (Homo sapiens, U-251, read-out: Log10 GI50 (converted)); 22.4 µM in assay [21]. The GI50 in assay [22] is 29.5 µM; in assay [23] (setting [28]), below 10 nM; in assay [24] (setting [28]), 42.7 nM; in [25], 31.6 nM; in assay [26] it was 36.3 µM.
Take `O=Cc1ccc(-c2ccc(-c3ccc(C=O)s3)s2)s1` [drawing 35]: the “Log10 GI50” value is given as -6.46 M in [4]; -4.68 M in assay [7]; -4.03 M in [8]; -4.39 M in assay [9]; -5.88 M in assay [12]; -5.76 M in assay [13]. Besides, the “Log10 GI50” value is on record as -5.72 M in assay [14]; -5.93 M in assay [16]; -5.29 M in assay [17]; -5.62 M in assay [18]; -4.74 M in assay [19]; -6.09 M in [20]. Besides, the “Log10 GI50” value in assay [23] is on record as -5.95 M; in [24] it was -5.15 M; in assay [27], -4.14 M.
